{"source": "patent US6689767B2", "about": "“Triterpenes having antibacterial activity” (Regents of the University of Minnesota, priority 2000, dated 2004)", "format_in_all_cases": "cell-based", "key": {"Bacillus subtilis": {"tested_on": "Bacillus subtilis", "assay": "Kirby-Bauer disk diffusion growth inhibition, Bacillus subtilis", "details": "for zone of inhibition at 0.125 µg/mL: read-out: Zone of inhibition Bacillus subtilis", "description": "(§1) The compounds disclosed herein were tested for growth inhibition against four strains of bacteria: Escherichia coli, Staphylococcus aureus, methicillin-resistant Staphylococcus aureus, and Bacillus subtilis. […] They represent […]. E. coli is a gram-negative, non-spore forming, rod-shaped, opportunistic pathogen that resides in the human digestive tract. S. aureus is a gram positive coccus, is usually found morphologically as a […], and is an opportunistic human pathogen, often residing on or in the skin. B. subtilis is a gram positive spore-forming rod. Its native environment is the soil. The chemicals were tested for growth-inhibition of the bacteria by the Kirby-Bauer method. See, e.g., Microbiology, third edition; Lansing M. Prescott, John P. Harley, and Donald A. Klein; Wm. C. Brown Publishers.\n(§2) Mueller-Hinton agar (Difco Lab, Michigan) was prepared according to the manufacturer's directions, and 20 ml was dispensed in each sterile petri dish. Sterile nutrient broth (Difco Lab, Michigan) was also prepared according to the manufacturer's directions.\n(§3) Bacteria were grown in liquid nutrient broth for 18 hours at 37° C. until they were turbid.\n(§4) An aliquot of 0.5 ml of cultured bacteria was aseptically transferred to the surface of a Mueller-Hinton agar plat, and spread using a cotton-tipped swab. Plates were then allowed to dry for 5 minutes. Then a 10 mm diameter filter paper disk impregnated with the test chemical was placed with sterile forceps on the plate. The disks were impregnated with 100 μl of a solution of the test compound in DMSO or in water, at the indicated concentrations in Table 1.\n(§5) The zones of inhibition were measured after 18 hours growth at 37° C. Tests were done in triplicate.\n(§6) Additional compounds were tested for activity against E. coli, laboratory strain S. aureus (not methicillin resistant), and B. subtilis. The compounds were tested by the disk diffusion method, as in Example 1, with application of a 10 mg/mil solution of the test compound in DMSO."}, "Staphylococcus aureus": {"tested_on": "Staphylococcus aureus", "assay": "Kirby-Bauer disk diffusion growth inhibition, Staphylococcus aureus", "details": "for zone of inhibition at 0.125 µg/mL: read-out: Zone of inhibition Staphylococcus aureus", "description": "as §1, §2, §3, §4, §5, §6\nDerivatives of lupeol were tested for inhibition of bacterial growth using the Kirby-Bauer disk diffusion method and by growth in liquid culture. For the disk diffusion method, compounds were dissolved in DMSO and 100 μl was added to the 10 mm filter paper disk. The amount of compound applied to the disk varied. The amount applied for each compound was as follows: lupeol (50 μg), lupeol-3-maleate (15 μg), lupeol-3-thiodiglycolate (15 μg), lupeol-3-dimethyl succinate (60 μg), lupeol-3-phosphate (30 μg), lupenone (50 μg), lupenon-3-oxime (50 μg), lupeol-3-amine (50 μg), lupenon-1,2-ene-2-ol (50 μg). In liquid culture, the compounds were dissolved in DMSO at 1 mg/ml and then 100 μl was added to 7 ml of sterile broth, along with a 1/200 dilution of freshly grown bacterial liquid culture."}, "Escherichia coli": {"tested_on": "Escherichia coli", "assay": "Kirby-Bauer disk diffusion growth inhibition, Escherichia coli", "details": "for zone of inhibition at 0.125 µg/mL: read-out: Zone of inhibition Escherichia coli", "description": "as §1, §2, §3, §4, §5, §6"}, "[1]": {"details": "125 ng/ml in water, 100 μl on 10 mm disk, 18 hours 37° C."}, "[2]": {"details": "Bacillus subtilis, 125 ng/ml in water, 100 μl on 10 mm disk, 18 hours 37° C."}, "[3]": {"details": "Staphylococcus aureus, 125 ng/ml in water, 100 μl on 10 mm disk, 18 hours 37° C."}, "[4]": {"details": "Escherichia coli, 125 ng/ml in water, 100 μl on 10 mm disk, 18 hours 37° C."}, "[5]": {"details": "20 mg/ml in DMSO, 100 μl on 10 mm disk, 18 hours 37° C."}, "[6]": {"details": "10 mg/ml in DMSO, 100 μl on 10 mm disk, 18 hours 37° C."}, "[7]": {"details": "0.5 ng/ml in water, 100 μl on 10 mm disk, 18 hours 37° C."}}, "data": [{"compound": "C=C(C)C1CCC2(COC(=O)[C@@H](N)CCC(=O)OCc3ccccc3)CCC3(C)C(CCC4C5(C)CCC(OC(=O)[C@@H](N)CCC(=O)OCc6ccccc6)C(C)(C)C5CCC43C)C12", "note": "(stereo partly drawn) [Betulin Di-(L-glutamic acid γ-benzyl ester) ester]", "values": [{"measurement": "Zone of inhibition Bacillus subtilis", "setting": "Bacillus subtilis; [1]", "result": 0, "unit": "mm"}, {"measurement": "Zone of inhibition Staphylococcus aureus", "setting": "Staphylococcus aureus; [1]", "result": 0, "unit": "mm"}, {"measurement": "Zone of inhibition Escherichia coli", "setting": "Escherichia coli; [1]", "result": 0, "unit": "mm"}]}, {"compound": "C=C(C)C1CCC2(C)CCC3(C)C(CCC4C5(C)CCC(OC(=O)CCC(=O)O)C(C)(C)C5CCC43C)C12", "note": "(stereo not drawn) [Lupeol-3-succinate]", "values": [{"measurement": "zone of inhibition at 0.125 µg/mL", "setting": "Bacillus subtilis; [2]", "result": 0, "unit": "mm"}, {"measurement": "zone of inhibition at 0.125 µg/mL", "setting": "Staphylococcus aureus; [3]", "result": 0, "unit": "mm"}, {"measurement": "zone of inhibition at 0.125 µg/mL", "setting": "Escherichia coli; [4]", "result": 0, "unit": "mm"}]}, {"compound": "Allobetulin-3-poly (ethylene glycol) bis (carboxymethyl) ether ester", "values": [{"measurement": "Zone of inhibition Bacillus subtilis", "setting": "Bacillus subtilis; [1]", "result": 0, "unit": "mm"}, {"measurement": "Zone of inhibition Staphylococcus aureus", "setting": "Staphylococcus aureus; [1]", "result": 0, "unit": "mm"}, {"measurement": "Zone of inhibition Escherichia coli", "setting": "Escherichia coli; [1]", "result": 0, "unit": "mm"}]}, {"compound": "CC1(C)CCC23CC[C@@]4(C)C(CCC5[C@@]6(C)CC[C@H](O)C(C)(C)C6CC[C@]54C)C2C1OC3", "note": "(stereo partly drawn) [Allobetulin]", "values": [{"measurement": "zone of inhibition at 1000 µg/mL", "setting": "Bacillus subtilis; Bacillus subtilis, 1 mg/ml in DMSO, 100 μl on 10 mm disk, 18 hours 37° C.", "result": 0, "unit": "mm"}, {"measurement": "zone of inhibition at 1000 µg/mL", "setting": "Staphylococcus aureus; Staphylococcus aureus, 1 mg/ml in DMSO, 100 μl on 10 mm disk, 18 hours 37° C.", "result": 0, "unit": "mm"}, {"measurement": "zone of inhibition at 1000 µg/mL", "setting": "Escherichia coli; Escherichia coli, 1 mg/ml in DMSO, 100 μl on 10 mm disk, 18 hours 37° C.", "result": 0, "unit": "mm"}]}, {"compound": "C=C(C)C1CCC2(C)CCC3(C)C(CCC4C5(C)CCC(OC(=O)c6ccccc6C(=O)O)C(C)(C)C5CCC43C)C12", "note": "(stereo not drawn) [Lupeol-3-phthalate]", "values": [{"measurement": "zone of inhibition at 0.125 µg/mL", "setting": "Bacillus subtilis; [2]", "result": 0, "unit": "mm"}, {"measurement": "zone of inhibition at 0.125 µg/mL", "setting": "Staphylococcus aureus; [3]", "result": 0, "unit": "mm"}, {"measurement": "zone of inhibition at 0.125 µg/mL", "setting": "Escherichia coli; [4]", "result": 0, "unit": "mm"}]}, {"compound": "Betulin 3,28-maleate", "values": [{"measurement": "Zone of inhibition Bacillus subtilis", "setting": "Bacillus subtilis; [5]", "result": 0, "unit": "mm"}, {"measurement": "Zone of inhibition Staphylococcus aureus", "setting": "Staphylococcus aureus; [5]", "result": 0, "unit": "mm"}, {"measurement": "Zone of inhibition Escherichia coli", "setting": "Escherichia coli; [5]", "result": 0, "unit": "mm"}]}, {"compound": "CC1(C)CCC23CC[C@@]4(C)C(CCC5[C@@]6(C)CCC(OP(=O)(O)O)C(C)(C)C6CC[C@]54C)C2C1OC3=O", "note": "(stereo partly drawn) [Allobetulin lactone phosphate, allobetulin lactone-3-phosphate]", "values": [{"measurement": "Zone of inhibition Bacillus subtilis", "setting": "Bacillus subtilis; [1]", "result": 0, "unit": "mm"}, {"measurement": "Zone of inhibition Staphylococcus aureus", "setting": "Staphylococcus aureus; [1]", "result": 0, "unit": "mm"}, {"measurement": "Zone of inhibition Escherichia coli", "setting": "Escherichia coli; [1]", "result": 0, "unit": "mm"}]}, {"compound": "CC(=O)OC1CCC2(C)C(CCC3(C)C2CCC2C4C5OC(=O)C4(CCC5(C)C)CCC23C)C1(C)C", "note": "(stereo not drawn) [3β-Acetoxy-19αH-19,28 lactone oleanan]", "values": [{"measurement": "Zone of inhibition Bacillus subtilis", "setting": "Bacillus subtilis; [1]", "result": 0, "unit": "mm"}, {"measurement": "Zone of inhibition Staphylococcus aureus", "setting": "Staphylococcus aureus; [1]", "result": 0, "unit": "mm"}, {"measurement": "Zone of inhibition Escherichia coli", "setting": "Escherichia coli; [1]", "result": 0, "unit": "mm"}]}, {"compound": "C=C(C)[C@@H]1CC[C@]2(COC(=O)/C=C\\C(=O)O)CC[C@]3(C)[C@H](CC[C@@H]4[C@@]5(C)CC[C@H](O)C(C)(C)[C@@H]5CC[C@]43C)[C@@H]12", "note": "[Betulin 28-maleate, Betulin-28-maleate]", "values": [{"measurement": "Zone of inhibition Bacillus subtilis", "setting": "Bacillus subtilis; [6]", "result": 0, "unit": "mm"}, {"measurement": "Zone of inhibition Staphylococcus aureus", "setting": "Staphylococcus aureus; [6]", "result": 0, "unit": "mm"}, {"measurement": "Zone of inhibition Escherichia coli", "setting": "Escherichia coli; [6]", "result": 0, "unit": "mm"}]}, {"compound": "Allobetulin glycine", "values": [{"measurement": "Zone of inhibition Bacillus subtilis", "setting": "Bacillus subtilis; [1]", "result": 0, "unit": "mm"}, {"measurement": "Zone of inhibition Staphylococcus aureus", "setting": "Staphylococcus aureus; [1]", "result": 0, "unit": "mm"}, {"measurement": "Zone of inhibition Escherichia coli", "setting": "Escherichia coli; [1]", "result": 0, "unit": "mm"}]}, {"compound": "Allobetulin ethanol amine", "values": [{"measurement": "Zone of inhibition Bacillus subtilis", "setting": "Bacillus subtilis; [1]", "result": 0, "unit": "mm"}, {"measurement": "Zone of inhibition Staphylococcus aureus", "setting": "Staphylococcus aureus; [1]", "result": 0, "unit": "mm"}, {"measurement": "Zone of inhibition Escherichia coli", "setting": "Escherichia coli; [1]", "result": 0, "unit": "mm"}]}, {"compound": "Hederine hydrate", "values": [{"measurement": "Zone of inhibition Bacillus subtilis", "setting": "Bacillus subtilis; [7]", "result": 0, "unit": "mm"}, {"measurement": "Zone of inhibition Staphylococcus aureus", "setting": "Staphylococcus aureus; [7]", "result": 0, "unit": "mm"}, {"measurement": "Zone of inhibition Escherichia coli", "setting": "Escherichia coli; [7]", "result": 0, "unit": "mm"}]}, {"compound": "Betulin dianiline ester", "values": [{"measurement": "Zone of inhibition Bacillus subtilis", "setting": "Bacillus subtilis; [1]", "result": 0, "unit": "mm"}, {"measurement": "Zone of inhibition Staphylococcus aureus", "setting": "Staphylococcus aureus; [1]", "result": 0, "unit": "mm"}, {"measurement": "Zone of inhibition Escherichia coli", "setting": "Escherichia coli; [1]", "result": 0, "unit": "mm"}]}, {"compound": "CC1(C)S[C@@H]2[C@H](NC(=O)Cc3ccccc3)C(=O)N2[C@H]1C(=O)O", "note": "[Pencillin G, reference compound]", "values": [{"measurement": "Zone of inhibition Bacillus subtilis", "setting": "Bacillus subtilis; control antibiotic, 10 units", "result": 25.0, "unit": "mm"}, {"measurement": "Zone of inhibition Staphylococcus aureus", "setting": "Staphylococcus aureus; control antibiotic, 10 units", "result": 40.0, "unit": "mm"}, {"measurement": "Zone of inhibition Escherichia coli", "setting": "Escherichia coli; control antibiotic, 10 units", "result": 0, "unit": "mm"}]}, {"compound": "CC1(C)CCC23CC[C@@]4(C)C(CCC5[C@@]6(C)CCC(=O)C(C)(C)C6CC[C@]54C)C2C1OC3", "note": "(stereo partly drawn) [Allobetulon]", "values": [{"measurement": "zone of inhibition at 0.125 µg/mL", "setting": "Bacillus subtilis; [2]", "result": 0, "unit": "mm"}, {"measurement": "zone of inhibition at 0.125 µg/mL", "setting": "Staphylococcus aureus; [3]", "result": 0, "unit": "mm"}, {"measurement": "zone of inhibition at 0.125 µg/mL", "setting": "Escherichia coli; [4]", "result": 0, "unit": "mm"}]}]}
